In patent US10683329B2, “Dual-site BACE1 inhibitors” (priority 2014, dated 2020):
pIC50: −log10 of the molar value. Like-named read-outs stand apart in the source and are kept apart here. Where a SMILES comes first, the peptide text is derived from it. [ ]: non-standard residue; d: D form. The star is where a group is joined. Succinyl(4-O-cholesteryl) = CC(C)CCC[C@@H](C)[C@H]1CC[C@H]2[C@@H]3CC=C4C[C@@H](OC(=O)CCC(=O)*)CC[C@]4(C)[C@H]3CC[C@]12C; Sta = CC(C)C[C@H](N)[C@@H](O)CC(=O)O; PEG4 = NCCOCCOCCOCCOCCC(=O)O

Target: T1, BACE1 (Homo sapiens, UniProt P56817)
T1 construct: Human HEK293 cells which are stably transfected with a vector expressing a cDNA of the human APP wt gene (APP695); endogenous in cells; host or cells: HEK293 (human), stably transfected with human APP695 wt
T1 sequence (P56817 46-501): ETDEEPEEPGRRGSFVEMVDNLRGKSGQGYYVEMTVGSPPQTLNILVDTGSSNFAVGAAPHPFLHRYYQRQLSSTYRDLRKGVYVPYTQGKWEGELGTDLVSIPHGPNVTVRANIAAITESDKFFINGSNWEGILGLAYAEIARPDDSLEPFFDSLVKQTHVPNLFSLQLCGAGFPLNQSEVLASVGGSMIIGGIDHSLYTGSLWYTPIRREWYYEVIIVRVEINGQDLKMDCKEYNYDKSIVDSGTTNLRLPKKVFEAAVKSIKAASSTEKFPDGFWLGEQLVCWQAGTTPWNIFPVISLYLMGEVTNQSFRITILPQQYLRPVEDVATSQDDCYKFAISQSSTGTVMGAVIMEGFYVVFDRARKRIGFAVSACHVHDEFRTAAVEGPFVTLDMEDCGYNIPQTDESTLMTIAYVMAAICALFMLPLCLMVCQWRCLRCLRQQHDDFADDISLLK
Experiment: Cellular Aβ-lowering assay (Aβ40 ELISA of culture supernatant)
Type: cell-based
Experimental: The compounds were investigated in accordance with the test given hereinafter.
Cellular Aβ-Lowering Assay:
Human HEK293 cells which are stably transfected with a vector expressing a cDNA of the human APP wt gene (APP695) were used to assess the potency of the compounds in a cellular assay. The cells were seeded in 96-well microtiter plates in cell culture medium (Iscove, plus 10% (v/v) fetal bovine serum, glutamine, penicillin/streptomycin) to about 80% confluence and the compounds were added at a 10× concentration in 1/10 volume of medium without FCS containing 8% DMSO (final concentration of DMSO was kept at 0.8% v/v). After 18-20 hrs incubation at 37° C. and 5% CO2 in a humidified incubator the culture supernatant was harvested for the determination of Aβ40 concentrations. 96 well ELISA plates (e.g., Nunc MaxiSorb) were coated with monoclonal antibody which specifically recognize the C-terminal end of Aβ40 (Brockhaus et al., NeuroReport 9; 1481-1486; 1998). After blocking of non-specific binding sites with e.g. 1% BSA and washing, the culture supernatants were added in suitable dilutions together with a horseradish peroxidase-coupled Aβ detection antibody (e.g., antibody 4G8, Senetek, Maryland Heights, Mo.) and incubated for 5 to 7 hrs. Subsequently the wells of the microtiter plate were washed extensively with Tris-buffered saline containing 0.05% Tween 20 and the assay was developed with tetramethylbenzidine/H2O2 in citric acid buffer. After stopping the reaction with one volume 1 N H2SO4 the reaction was measured in an ELISA reader at 450 nm wavelength. The concentrations of Aβ in the culture supernatants were calculated from a standard curve obtained with known amounts of pure Aβ peptide.

[1] = Aβ40 in supernatant of human HEK293 cells stably transfected with human APP wt (APP695), 18-20 hrs incubation, read-out: IC 50

CC[C@H](C)[C@H](NC(=O)[C@H](Cc1ccccc1)NC(=O)[C@H](Cc1ccc(O)cc1)NC(=O)[C@@H]1CCCN1C(=O)[C@@H](N)Cc1ccc(O)cc1)C(=O)N1CCC[C@H]1C(=O)N[C@@H](CC(C)C)C(=O)NCC(=O)NCC(=O)NCC(=O)NCC(=O)N[C@@H](CCC(=O)O)C(=O)N[C@H](C(=O)N[C@@H](CC(N)=O)C(=O)N[C@@H](CCSC)[C@@H](O)CC(=O)N[C@H](C(=O)N[C@@H](C)C(=O)N[C@@H](CCC(=O)O)C(=O)N[C@H](Cc1ccccc1)C(=O)N[C@@H](CCCCNC(=O)CCC(=O)O[C@H]1CC[C@@]2(C)C(=CC[C@H]3[C@@H]4CC[C@H]([C@H](C)CCCC(C)C)[C@@]4(C)CC[C@@H]32)C1)C(N)=O)C(C)C)C(C)C [Example 24, Tyr-Pro-Tyr-Phe-Ile-Pro-Leu-Gly-Gly-Gly-Gly-Glu-Val-Asn-MetSta-Val-Ala-Glu-DPhe-Lys(Chol)-NH2]
pIC50 [1]: 10.28

CC[C@H](C)[C@H](NC(=O)[C@H](Cc1ccccc1)NC(=O)[C@H](Cc1ccc(O)cc1)NC(=O)[C@@H]1CCCN1C(=O)[C@@H](N)Cc1ccc(O)cc1)C(=O)N1CCC[C@H]1C(=O)N[C@@H](CC(C)C)C(=O)NCC(=O)NCC(=O)NCC(=O)N[C@@H](CCC(=O)O)C(=O)N[C@H](C(=O)N[C@@H](CC(N)=O)C(=O)N[C@@H](CC(C)C)[C@@H](O)CC(=O)N[C@H](C(=O)N[C@@H](C)C(=O)N[C@@H](CCC(=O)O)C(=O)N1CCC[C@@H]1C(=O)N[C@@H](CCCCNC(=O)CCC(=O)O[C@H]1CC[C@@]2(C)C(=CC[C@H]3[C@@H]4CC[C@H]([C@H](C)CCCC(C)C)[C@@]4(C)CC[C@@H]32)C1)C(N)=O)C(C)C)C(C)C [Example 2, Tyr-Pro-Tyr-Phe-Ile-Pro-Leu-Gly-Gly-Gly-Glu-Val-Asn-Sta-Val-Ala-Glu-DPro-Lys(Chol)-NH2]
pIC50: 10.57

CC(C)CCC[C@@H](C)[C@H]1CC[C@H]2[C@@H]3CC=C4C[C@@H](OC(=O)CCC(=O)NCCCC[C@H](NC(=O)[C@H]5CCCN5C(=O)[C@H](CCC(=O)O)NC(=O)[C@H](C)NC(=O)[C@@H](NC(=O)C[C@H](O)[C@H](CC(C)C)NC(=O)[C@H](CC(N)=O)NC(=O)[C@@H](NC(=O)[C@H](CCC(=O)O)NC(=O)CCOCCOCCOCCOCCNC(=O)[C@H](CC(C)C)NC(=O)[C@@H]5CCCN5C(=O)[C@H](CCCCN)NC(=O)[C@H](Cc5ccccc5)NC(=O)[C@H](Cc5ccc(O)cc5)NC(=O)[C@@H]5CCCN5C(=O)[C@@H](N)Cc5ccc(O)cc5)C(C)C)C(C)C)C(N)=O)CC[C@]4(C)[C@H]3CC[C@]12C [Example 34, Tyr-Pro-Tyr-Phe-Lys-Pro-Leu-PEG(4)-Glu-Val-Asn-Sta-Val-Ala-Glu-DPro-Lys(Chol)-NH2] (H-YPYFKPL[PEG4]EVN[Sta]VAE[dP]K(Succinyl(4-O-cholesteryl))-NH2)
pIC50 [1]: 10.63

CC[C@H](C)[C@H](NC(=O)[C@H](Cc1ccccc1)NC(=O)[C@H](Cc1ccc(O)cc1)NC(=O)[C@@H]1CCCN1C(=O)[C@@H](N)Cc1ccc(O)cc1)C(=O)N1CCC[C@H]1C(=O)N[C@@H](CC(C)C)C(=O)N[C@@H](CCCCN)C(=O)NCC(=O)NCC(=O)N[C@@H](CCC(=O)O)C(=O)N[C@H](C(=O)N[C@@H](CC(N)=O)C(=O)N[C@@H](CC(C)C)[C@@H](O)CC(=O)N[C@H](C(=O)N[C@@H](C)C(=O)N[C@@H](CCC(=O)O)C(=O)N1CCC[C@@H]1C(=O)N[C@@H](CCCCNC(=O)CCC(=O)O[C@H]1CC[C@@]2(C)C(=CC[C@H]3[C@@H]4CC[C@H]([C@H](C)CCCC(C)C)[C@@]4(C)CC[C@@H]32)C1)C(N)=O)C(C)C)C(C)C [Example 40, Tyr-Pro-Tyr-Phe-Ile-Pro-Leu-Lys-Gly-Gly-Glu-Val-Asn-Sta-Val-Ala-Glu-DPro-Lys(Chol)-NH2]
pIC50 [1]: 10.63

CC[C@H](C)[C@H](NC(=O)[C@H](Cc1ccccc1)NC(=O)[C@H](Cc1ccc(O)cc1)NC(=O)[C@@H]1CCCN1C(=O)[C@@H](N)Cc1ccc(O)cc1)C(=O)N1CCC[C@H]1C(=O)N[C@@H](CC(C)C)C(=O)N[C@@H](CO)C(=O)NCC(=O)NCC(=O)N[C@@H](CCC(=O)O)C(=O)N[C@H](C(=O)N[C@@H](CC(N)=O)C(=O)N[C@@H](CC(C)C)[C@@H](O)CC(=O)N[C@H](C(=O)N[C@@H](C)C(=O)N[C@@H](CCC(=O)O)C(=O)N1CCC[C@@H]1C(=O)N[C@@H](CCCCNC(=O)CCC(=O)O[C@H]1CC[C@@]2(C)C(=CC[C@H]3[C@@H]4CC[C@H]([C@H](C)CCCC(C)C)[C@@]4(C)CC[C@@H]32)C1)C(N)=O)C(C)C)C(C)C [Example 54, Tyr-Pro-Tyr-Phe-Ile-Pro-Leu-Ser-Gly-Gly-Glu-Val-Asn-Sta-Val-Ala-Glu-DPro-Lys(Chol′ester′)-NH2] (H-YPYFIPLSGGEVN[Sta]VAE[dP]K(Succinyl(4-O-cholesteryl))-NH2)
pIC50 [1]: 10.28
